Results as given in US9724380B2, “Method and compositions for synchronizing time of insemination in gilts” (JBS UNITED ANIMAL HEALTH II LLC, priority 2012, dated 2017).

Tests used:
gilts [1] = experiment: Example 1: estrus observation (boar exposure, back pressure) after triptorelin gel; format: in vivo, swine; details: 200 mcg T at 120 h post-MATRIX; raw average; PTK 1-07 (rep 3)
Experimental: All gilts were individually fed MATRIX® as a top-dress for 14 days at the recommended rate of 15 mg/gilt/day. Gilts were withdrawn from MATRIX® feeding (last top feed in the morning on Day 0) and allotted to treatments. Controls were treated with a 1.2% methylcellulose gel formulation without triptorelin at 96 hours following MATRIX® withdrawal (last top-dress). The remaining gilts received 200 mcg triptorelin, as the acetate, in a 1.2% methylcellulose gel formulation intravaginally at various times after MATRIX® withdrawal. The four treatments were: 1) vehicle gel (VG) treatment at 96 hours after MATRIX® withdrawal, 2) triptorelin gel (TG) treatment at 96 hours after MATRIX® withdrawal, 3) TG treatment at 120 hours after MATRIX® withdrawal and 4) TG treatment at 144 hours after MATRIX® withdrawal. All gilts were monitored for their estrous and ovulatory status as described below. Gilts included in replicate 1 were selected from terminal line commercial production gilts located in grow/finish barns. Sexual maturity, as indicated by one or more estrous periods, was not verified prior to the start of MATRIX® feeding. Gilts included in replicate 2 were selected from a maternal line gilt population. Sexual maturity was verified by at least one estrous period verified and recorded prior to starting MATRIX® feeding. […]
Data were analyzed using the Mixed Models procedures of SAS. […]

gilts [2] = experiment: Example 1: ovulation monitored by transrectal ultrasonography after 200 mcg triptorelin gel intravaginally at 96, 120 or 144 h after MATRIX withdrawal; format: in vivo, swine; details: 200 mcg T, raw average, PTK 1-07 (rep 3)
Experimental: All gilts were individually fed MATRIX® as a top-dress for 14 days at the recommended rate of 15 mg/gilt/day. Gilts were withdrawn from MATRIX® feeding (last top feed in the morning on Day 0) and allotted to treatments. Controls were treated with a 1.2% methylcellulose gel formulation without triptorelin at 96 hours following MATRIX® withdrawal (last top-dress). The remaining gilts received 200 mcg triptorelin, as the acetate, in a 1.2% methylcellulose gel formulation intravaginally at various times after MATRIX® withdrawal. The four treatments were: 1) vehicle gel (VG) treatment at 96 hours after MATRIX® withdrawal, 2) triptorelin gel (TG) treatment at 96 hours after MATRIX® withdrawal, 3) TG treatment at 120 hours after MATRIX® withdrawal and 4) TG treatment at 144 hours after MATRIX® withdrawal. All gilts were monitored for their estrous and ovulatory status as described below. Gilts included in replicate 1 were selected from terminal line commercial production gilts located in grow/finish barns. Sexual maturity, as indicated by one or more estrous periods, was not verified prior to the start of MATRIX® feeding. Gilts included in replicate 2 were selected from a maternal line gilt population. Sexual maturity was verified by at least one estrous period verified and recorded prior to starting MATRIX® feeding.
Triptorelin (pGlu-His-Trp-Ser-Tyr-D-Trp-Leu-Arg-Pro-Gly-NH2) was supplied in the acetate form, from Bachem, Torrance, Calif. (Item H-4075 CGMP grade). Triptorelin gel (200 μg/2 mL) was formulated by Argenta (Auckland, NZ) in a gel composed of Methocel Premium A4000 (Dow Chemical), citrate buffer (pH 5.5), NaCl, methionine and EDTA (as potential stabilizers) and methyl and propyl parabens (as preservatives). Fifty-four milliliters of triptorelin gel (100 mcg triptorelin acetate/mL) was packaged in Amber Borosilicate Glass Serum Vials (610206-50) with a Gray Butyl Pharmaceutical Serum Vial Stopper (73828A-SS) with a Standard Aluminum Seal (SAS20NAT). […] MATRIX® was supplied as the US commercially available form.
The ovulatory status of all gilts was monitored by transrectal ultrasonography. For replicate one, ovulation was monitored two times on Day 5, then three times a day from Day 6 to Day 8. For replicate two, ovulation was monitored three times a day from Day 5 to Day 8. An Aloka 500 ultrasound machine with a 7.5 MHz linear array transducer attached to a fixed-angle PVC stabilizing rod to facilitate insertion into the rectum was used for this purpose. The transducer and PVC rod were coated with a gynecological lubricant and gently inserted into the rectum until the ovaries were visualized, one at a time. The diameters of the three largest follicles were recorded (to the nearest 0.1 mm) at each scanning. A gilt was declared to have ovulated when the number of large follicles (≧6.5 mm) fell to less than 3.
A single 2 mL dose of triptorelin gel or vehicle gel was deposited within approximately 1-2 cm posterior to the cervix with a catheter similar to those used for artificial insemination. The dose was delivered using a standard multi-dose applicator attached to the catheter. A new disposable sheath, which surrounds the catheter, was used for each gilt.
Data were analyzed using the Mixed Models procedures of SAS. Models included main effects of time of treatment following the last feeding of MATRIX®, replicate, and treatment by replicate interaction. Differences between treatments were tested on least squares means estimates using the T test at P<0.05. Data for analysis were tested for assumptions of data normality.

CC(C)C[C@H](NC(=O)[C@@H](Cc1c[nH]c2ccccc12)NC(=O)[C@H](Cc1ccc(O)cc1)NC(=O)[C@H](CO)NC(=O)[C@H](Cc1c[nH]c2ccccc12)NC(=O)[C@H](Cc1c[nH]cn1)NC(=O)[C@@H]1CCC(=O)N1)C(=O)N[C@@H](CCCNC(=N)N)C(=O)N1CCC[C@H]1C(=O)NCC(N)=O [T, pGlu-His-Trp-Ser-Tyr-D-Trp-Leu-Arg-Pro-Gly-NH2]
Estrous Expression (%) (gilts [1]): 100.0% | % of Sows Ovulating (gilts [2]; 128 h post-MATRIX (8 h post-T)): 0.0% | % of Sows Ovulating (gilts [2]; 136 h post-MATRIX (16 h post-T)): 10.0% | % of Sows Ovulating (gilts [2]; 144 h post-MATRIX (24 h post-T)): 30.0% | % of Sows Ovulating (gilts [2]; 152 h post-MATRIX (32 h post-T)): 70.0% | % of Sows Ovulating (gilts [2]; 160 h post-MATRIX (40 h post-T)): 80.0% | % of Sows Ovulating (gilts [2]; 168 h post-MATRIX (48 h post-T)): 90.0% | % of Sows Ovulating (gilts [2]; 176 h post-MATRIX (56 h post-T)): 100.0%
